# Test results as given in patent US11197856B2, “Bicyclic compounds and methods for their use in treating autism” (priority 2013, dated 2021).
# Experiments:
# fmr1-knockout animals = assay: Sociability: bouts of sniffing a novel mouse; format: in vivo, mice; settings: p<0.001
# Method: Social recognition and social memory in mice were evaluated by the amount of time spent sniffing a novel mouse upon repeated exposures, to induce familiarity, and reinstatement of high levels of sniffing when a novel stimulus animal is introduced. We measured the number of bouts of sniffing in each of the groups of animals.
# p-Akt = assay: Phospho-flow cytometry of lymphocytes, p-Akt; format: in vivo; settings: fmr1-knockout mice; 15, 30, 60 and 240 minutes after a single treatment
# Excerpt: Lymphocytes are isolated from five fmr1-knockout and five wild-type titter mate control mice, per study time after injection with cG-2-AllylP. Lymphocytes are examined for activation of two signaling effectors, p-ERK1/2 and p-Akt using phosphorylation status as a measure of activation by flow cytometry (phospho-flow).
# 2. Flow cytometry total and phosphorylated AKT in lymphocytes
# [1] = system: fmr1-knockout mice and wild-type littermates; assay: Successive Alleys Test; format: in vivo
# Method: The fmr1-knockout (KO2) mice (C57BL/6 background) were housed in groups of the same genotype in a temperature and humidity controlled room with a 12-h light-dark cycle (lights on 7 am to […]). Testing was conducted during the light phase. Food and water were available ad libitum. Testing was conducted on fmr1-knockout mice and their wild-type littermates. Experiments were conducted according to requirements of the UK Animals (Scientific Procedures) Act, 1986. The animals were divided into four groups:
# In one study, we used a “Successive Alleys Test” device. This device consists of four successive, linearly connected increasingly anxiogenic alleys. Each succeeding alley was painted a lighter color, had lower walls and/or was narrower than the previous alley. Animals were placed at the closed end of alley 1 (A1), facing the end wall. The latency to first enter each alley (A2, A3, and/or A4), the amount of time spent in each alley, and the number of entries into each alley were recorded during a total test time of 300 seconds.
# For a Successive Alleys Test, we measured the number of entries in Alley 1 (A1), Alley 2 (A2), Alley 3 (A3), and Alley 4 (A4) for each of the 4 groups of animals described above.
# [2] = system: animals with scopolamine-induced memory impairment; assay: Morris Water Maze (MWM) test with scopolamine-induced memory impairment; format: in vivo, Wistar rats; settings: 30 mg/kg; daily; oral
# Excerpt: The first part of the study involved acute testing of cG-2-AllylP in the Morris Water Maze Memory (MWM) model. The MWM test is one of the most frequently used tests for assessing spatial memory in rats and is well recognized to accurately predict effects of disease and treatment on spatial memory generally. Therefore, the MWM test reflects effects of disease and treatment in human subjects. The standard procedure for MWM was followed. We used a circular swimming pool (80 cm depth×150 cm diameter) filled with opaque water, with the temperature maintained at 20° C. […] On days 1-4 of the experiment rats underwent memory acquisition trials with 6 trials (60 seconds each) in each day of testing (habituation phase). Latency to reach the platform was recorded and the daily reduction of average latency was used to measure the capability to learn where the hidden platform was. […] Experimental groups are detailed in the Table 4 below. On […], the probe MWM test was performed with the platform removed. There were 6 trials, each of maximum duration of 60s, at least 3 min rest between trials). […] Data was collected and analysed using Any-maze (v4.2) software. The data generated from behavioural tests was analysed using one-way ANOVA for determining the difference between the aged-groups. […]
# cerebellar explants = assay: Cerebellar explants, glutamate/3-nitropropionic acid neurotoxicity; format: cell-based, Wistar rats
# Method: Cover slips were placed into a large Petri dish and washed in 70% alcohol for 5 minutes, then washed with Millipore H2O. The cover slips were air dried, and coated with Poly-D-Lysine (1 mg/ml stock solution in PBS, 90-100 μl) for 2 hours at 34° C.
# Postnatal day 8 Wistar rats were used for the study. The rats were sacrificed and placed in ice for 1 minute, decapitated and the cerebellum removed and placed on ice. Cerebellum tissue was placed in 1 ml of 0.65% glucose-supplemented PBS (10 μl 65% stock D (+)glucose/1 ml PBS) in a large Petri dish, chopped up into smaller sections and triturated with a 1 ml insulin syringe via a 23 G (0.4 mm) needle, and then squirted back into the glucose solution in the large Petri dish. The tissue was sieved through (125 μm pore size gauze) and centrifuged (2 minutes at 60 g) twice to exchange the medium into serum-free BSA-supplemented START V medium (Biochrom, Germany). The second centrifugation step was done with 1 ml of START V medium. The microexplants were reconstituted into 500 μl of START V medium and put on ice.
# Two hours after PDL-coating, the slides were washed with Millipore H2O and air dried. Each slide was placed into a small Petri dish (diameter: 35 mm) and 40 μl of START V/cell suspension was added. The tissue was incubated for 2 hours at 34° C. (settlement period). START V-medium (1 ml) was then added to the Petri dish and cultivated at 34° C. in the presence of 5% CO2 in air at 100% humidity for 48 hours.
# For the study, certain explant cultures were exposed to vehicle (PBS) only. In the first study (Study 1) 10 μl of toxin 1 (L-glutamate—100 mM in Millipore water; final concentration; 1 mM) and 10 μl of toxin 2 (3-nitropropionic acid—50 mM—pH 7—in Millipore water, final concentration: 0.5 mM) was applied simultaneously with the drug to be tested ([…]). In each case, the drugs were left in contact with the explants for the duration of the study.
# After explants were exposed to drugs for the study period, cells were then rinsed in PBS and then fixed in increasing concentrations of paraformaldehyde (500 μl of 0.4% PFA was applied; then 1.2% PFA; then 3% PFA and finally 4% PFA (each fixation step: 2-3 minutes). Finally, the microexplants were rinsed in PBS.
# Neurons in the explants were then evaluated for morphology (presence of neurites) and counted as live cells per microscopic field. Four fields displaying highest cell density were counted per cover slip and the data presented as mean±standard error of the mean (SEM); n=4 each. Statistical significance was evaluated by using the non-paired Student's t-test.
smiles,measurement,setting,value
"C=CC[C@]12CCCN1C(=O)CNC2=O [cG-2-AllylP, (8aS)-Allyl-hexahydropyrrolo[1,2-a]pyrazine-1,4-dione]",bouts of sniffing,fmr1-knockout animals,about 21
same,mean fluorescent intensity (MFI) for p-AKT,p-Akt,decreases at all time points
same,number of entries into arm A1,[1]; fmr1-knockout animals,about 4 times
same,number of entries into arm A2,[1]; fmr1-knockout animals,about 4 times
same,number of entries into arm A3,[1]; fmr1-knockout animals,about 4 times
same,number of entries into arm A4,[1]; fmr1-knockout animals,about 3 times
same,open arm entries,"[1]; fmr1-knockout animals vs vehicle, p<0.001",significant reduction in open arm entries
same,time spent in the center,"[1]; fmr1-knockout animals vs vehicle, p<0.005",significant reduction
same,number of entries into arm A1,[1]; wild-type animals,about 2 times
same,number of entries into arm A2,[1]; wild-type animals,about 4 times
same,cognitive impairment induced by scopolamine (MWM),[2],significantly reversed the cognitive impairment induced by scopolamine
same,numbers of cells having neurites,cerebellar explants; administered simultaneously with glutamate,significantly increased the numbers of cells having neurites in a dose-dependent manner
same,glutamate-induced neurotoxicity,cerebellar explants; low doses (cG-2-AllylP: 100 pm to 10 nm),significant decrease in glutamate-induced neurotoxicity
